Laboratory results as given in US10493064B2, “IBS microbiota and uses thereof” (priority 2014, dated 2019).
≈ marks a conversion by molar mass, not a printed value. Read-outs that look alike come from different tables or passages of the source.

What was measured:
Staphylococcus isolates = assay: Broth microdilution susceptibility (MIC) testing of Staphylococcus isolates cultured from skin swabs; assay type: cell-based; settings: for resistance of S. aureus isolates: S. aureus isolates from skin swabs, OL or DB phases; for MIC: read-out: maximum MIC concentration observed; for changes in MIC90 values: return to baseline by end of study
[1] = tested on: Staphylococcus isolates cultured from stool; assay: Susceptibility (MIC) testing of stool culture isolates: Staphylococcus; assay type: cell-based; settings: end of Treatment 2 (OL) and end of Treatment 3 (DBR); returned to baseline in follow-up
Bacteroides = assay: Susceptibility (MIC) testing of stool culture isolates: Bacteroides; assay type: cell-based
C. difficile = assay: Susceptibility testing of stool culture isolates: C. difficile; assay type: cell-based, Clostridium difficile
stool microbiota = assay: 16S rRNA gene sequencing of stool microbiota in IBS-D subjects (richness, diversity, evenness, family abundance); assay type: in vivo, human; settings: for Shannon diversity: DB rifaximin group
Experimental: Stool aliquots from the selected subjects were shipped frozen for genomic sequencing. The samples were thawed at the time of testing. DNA was extracted from stool. Next-generation sequencing technology (Illumina HiSeq2500) was used to sequence the V4 region of the 16S ribosomal RNA. In order to do this, a 286 base pair (bp) region was amplified […] first using Illumina's adapter information, and then a second round of demultiplexing was performed. Approximately 4.6 billion total ([…] paired ends) sequences were generated from the selected stool samples. […] There were 172 separate families identified from subjects randomly selected. […] This list also included families of bacteria that contained known pathogens. The Shannon Diversity Index was used to determine the diversity (which takes into account not only the number of bacterial families present, but also the relative abundance of those families) of the stool microbiota at each visit.

S. aureus = assay: Skin swab culture for S. aureus in IBS-D subjects; assay type: in vivo, human; settings: OL or DB phases
Experimental: For the skin swab study, skin swab collection was performed for a subset of subjects (approximately 10% of the study population) at each of the following visits: Visits 3 and 4 (baseline and after two weeks of open-label rifaximin 550 mg TID [Treatment 2], respectively), Visits 6 and 7 (prior to and immediately after two weeks of double-blind retreatment [Treatment 3] with rifaximin 550 mg TID or placebo), and Visit 11 (End of Study). For each subject in this study, skin swabs were collected from the peri-rectum, nares, palms of hands, and forearms, and swabs were shipped immediately to the microbiology laboratory at ambient temperature in media-containing tubes. Skin swab cultures were conducted to isolate all Staphylococcus species.
Upon receipt at the microbiology laboratory, each skin swab was plated onto tryptic soy agar containing 5% sheep's blood and Columbia-colistin nalidixic acid agar with 5% sheep's blood to select for Gram-positive colonies. […] The inoculated plates were incubated at 35° C. in a 5-7% CO2 incubator, with plates examined at 24 and 48 h for bacterial growth.

[2] = Phase 3 repeat treatment study in IBS patients, infection rates; assay type: in vivo, human; settings: following single or repeat treatment courses in IBS patients
Experimental: Subjects entered a Screening/Treatment 1 Phase which included a 10 (±3) day treatment, during which the subjects received single-blind placebo TID and completed a daily symptom diary. Following the Screening/Treatment 1 Phase, eligible subjects entered the Treatment 2 Phase and received open-label rifaximin 550 mg TID for 2 weeks with a 4 week treatment-free follow-up. At the end of the Treatment 2 Phase, subjects who achieved treatment success in both IBS-related abdominal pain and stool consistency during at least 2 weeks of the 4 week follow-up period were classified as responders and entered a treatment-free Maintenance Phase 1. Non-responders in the Treatment 2 Phase were withdrawn from the study to provide an enriched population of subjects who respond to treatment with rifaximin.
The treatment-free Maintenance Phase 1 varied in time (up to 18 weeks in total) and depended upon the time of symptom recurrence. […] Subjects with recurrence entered Treatment 3 Phase, also referred to as the Double-Blind (DB) Repeat Treatment Phase. In this phase, subjects were randomized 1:1 to receive either rifaximin 550 mg TID or placebo TID for 2 weeks with a 4-week treatment-free follow-up. All subjects from the Treatment 3 Phase then entered a 6-week maintenance phase (Maintenance Phase 2). […]

[3] = skin swab, OL Week 2, following rifaximin treatment
[4] = skin swab, OL follow-up Week 7 to Week 10
[5] = skin swab, OL follow-up Week 11 to Week 14

With `CO[C@H]1/C=C/O[C@@]2(C)Oc3c(C)c(O)c4c(O)c(c5c(nc6cc(C)ccn65)c4c3C2=O)NC(=O)/C(C)=C\C=C\[C@H](C)[C@H](O)[C@@H](C)[C@@H](O)[C@@H](C)[C@H](OC(C)=O)[C@@H]1C` [rifaximin] the “resistance of S. aureus isolates” value (Staphylococcus isolates) was “no S. aureus isolates showed resistance”, the MIC90 (Staphylococcus isolates; Staphylococcus, 24 h, skin swab isolates, DB phase Day 1 (Treatment 3), subjects randomized to placebo) was 0.03 µg/mL (≈ 0.0382 µM) and the MIC90 (Staphylococcus isolates; Staphylococcus, 24 h, skin swab isolates, DB phase Day 1, subjects randomized to rifaximin) was 0.03 µg/mL (≈ 0.0382 µM). The MIC90 (Staphylococcus isolates; Staphylococcus, 24 h, skin swab staphylococcal isolates, OL phase, Treatment 2 visit (Day 1), prior to rifaximin) was 0.03 µg/mL (≈ 0.0382 µM), the MIC50 (Staphylococcus isolates; Staphylococcus, 24 h, skin swab staphylococcal isolates, OL phase, Treatment 2 visit (Day 1), prior to rifaximin, read-out: MIC50) was 0.015 µg/mL (≈ 0.0191 µM) and the MIC90 (Staphylococcus isolates; Staphylococcus, 336 h, skin swab isolates, OL phase, EOT2 Visit (Week 2), after rifaximin 550 mg TID 2 weeks) was 32 µg/mL (≈ 40.7 µM). For the same compound, the MIC50 (Staphylococcus isolates; Staphylococcus, 336 h, skin swab isolates, OL phase, EOT2 Visit (Week 2), after rifaximin 550 mg TID 2 weeks, read-out: MIC50) was 0.015 µg/mL (≈ 0.0191 µM), the MIC90 (Staphylococcus isolates; Staphylococcus, skin swab isolates, DB rifaximin subjects, EOT3 Visit (Week 2)) was 32 µg/mL (≈ 40.7 µM) and the MIC90 (Staphylococcus isolates; Staphylococcus, skin swab isolates, DB rifaximin subjects, Week 15 to Week 22) was 0.5 µg/mL (≈ 0.636 µM). It also gave an MIC90 (Staphylococcus isolates; Staphylococcus, skin swab isolates, DB rifaximin subjects, between Week 11 and Week 14) of 64 µg/mL (≈ 81.4 µM), an MIC90 (Staphylococcus isolates; Staphylococcus, skin swab isolates, DB rifaximin subjects, between Week 23 and Week 38) of 0.06 µg/mL (≈ 0.0763 µM) and an MIC90 (Staphylococcus isolates; Staphylococcus, skin swab isolates, OL Last Assessment Visits, Weeks 7 to 10) of 2 µg/mL (≈ 2.54 µM). For the same compound, the MIC (Staphylococcus isolates; Staphylococcus, skin swab isolates, OL Last Assessment Visits, after decrease with time off rifaximin) was 0.06 µg/mL (≈ 0.0763 µM), the MIC (Staphylococcus isolates; Staphylococcus, skin swab isolates, OL Last Assessment Visits, before decrease with time off rifaximin) was 64 µg/mL (≈ 81.4 µM) and the MIC90 (Staphylococcus isolates; Staphylococcus, skin swab isolates, OL Last Assessment Visits, from Week 11 onward) was 0.03 µg/mL (≈ 0.0382 µM). For the same compound, the MIC50 (Staphylococcus isolates; Staphylococcus, skin swab isolates, DB rifaximin subjects, DB Last Assessment Visits, read-out: MIC50) was 0.015 to 0.06 µg/mL (≈ 0.0191 to 0.0763 µM), the MIC50 (Staphylococcus isolates; skin swab isolates, DB phase Day 1 (Treatment 3), subjects randomized to placebo) was 0.015 µg/mL (≈ 0.0191 µM) and the MIC50 (Staphylococcus isolates; skin swab isolates, DB phase Day 1, subjects randomized to rifaximin) was 0.015 µg/mL (≈ 0.0191 µM). For the same compound, the “changes in MIC50 values” (Staphylococcus isolates; skin swab staphylococcal isolates, overall with rifaximin treatment) was “no changes”, the “changes in MIC90 values” (Staphylococcus isolates; skin swab staphylococcal isolates, overall) was “Transient changes” and the “change in MIC values” [1] was “Transient increases”. The “increases in the MIC50 or MIC90” value (Bacteroides) was “within the range of MICs reported both at baseline”, the susceptibility (C. difficile; all C. difficile cultured from stool) was “highly susceptible” and the “resistance of C. difficile isolates” value (C. difficile; isolates identified in stool samples) was “none of these isolates demonstrated rifaximin resistance”. For the same compound, the “evenness in the microbiota” value (stool microbiota; DB phase) was “unchanged”, the “richness of the microbiota” value (stool microbiota; DB phase, rifaximin treated subjects, Week 2, reversed in follow-up) was “decreased” and the Shannon diversity (stool microbiota; after the 2 week treatment period) was 1.698. For the same compound, the Shannon diversity (stool microbiota; baseline of DB phase) was 1.786, the “decrease in richness of the microbiota” value (stool microbiota; OL phase, baseline to Week 2) was 1.235 families and the “change in Shannon diversity of the stool microbiota” value (stool microbiota; OL phase, rifaximin 550 mg TID 2 weeks) was “no substantial change”. For the same compound, the “evenness of the microbiota” value (stool microbiota; OL phase, rifaximin treatment) was “not affected”, the “change in the number of S. aureus isolates” value (S. aureus) was “no increase” and the infection rates [2] was “no increased infection rates”.

For `CO[C@H]1/C=C/O[C@@]2(C)Oc3c(C)c(O)c4c(O)c(c(/C=N/N5CCN(C)CC5)c(O)c4c3C2=O)NC(=O)/C(C)=C\C=C\[C@H](C)[C@H](O)[C@@H](C)[C@@H](O)[C@@H](C)[C@H](OC(C)=O)[C@@H]1C` [rifampin], the “changes in MIC50 values” (Staphylococcus isolates) was “no changes”, the resistant isolates (Staphylococcus isolates; DB placebo treated subjects, Day 1, peri-rectum) was 1 isolates and the resistant isolates (Staphylococcus isolates; DB placebo treated subjects, Week 2, peri-rectum) was 2 isolates. For the same compound, the resistant isolates (Staphylococcus isolates; DB placebo treated subjects, treatment period, all from peri-rectum) was 3 isolates, the “isolates with MIC value of ≥4 μg/mL” value (Staphylococcus isolates; OL Last Assessment Visits between Week 7 and Week 32, […]) was 16 isolates and the “resistance of S. aureus isolates” value (Staphylococcus isolates) was “no S. aureus isolates showed resistance”. The MIC90 (Staphylococcus isolates; Staphylococcus, 24 h, […], DB placebo subjects, all Visits from Day 1 to DB Last Assessment) was at most 0.015 µg/mL, the MIC90 (Staphylococcus isolates; Staphylococcus, 24 h, […], OL phase, Treatment 2 visit (Day 1), prior to rifaximin) was at most 0.015 µg/mL and the MIC50 (Staphylococcus isolates; Staphylococcus, 24 h, […], OL phase, Treatment 2 visit (Day 1), prior to rifaximin, read-out: MIC50) was at most 0.015 µg/mL. The MIC90 (Staphylococcus isolates; Staphylococcus, 336 h, […], OL phase, EOT2 Visit (Week 2), after rifaximin 550 mg TID 2 weeks) was 16 µg/mL (≈ 19.4 µM), the MIC50 (Staphylococcus isolates; Staphylococcus, 336 h, […], OL phase, EOT2 Visit (Week 2), after rifaximin 550 mg TID 2 weeks, read-out: MIC50) was at most 0.015 µg/mL and the MIC90 (Staphylococcus isolates; Staphylococcus, […], OL Last Assessment Visits, Weeks 7 to 10) was 0.5 µg/mL (≈ 0.608 µM). The MIC90 (Staphylococcus isolates; Staphylococcus, […], OL Last Assessment Visits, from Week 11 onward) was at most 0.015 µg/mL, the MIC50 (Staphylococcus isolates; […], DB placebo subjects, all Visits from Day 1 to DB Last Assessment) was at most 0.015 µg/mL and the MIC range (Staphylococcus isolates; […], OL phase, Day 1 of Treatment 2) was 0.015 to 0.12 µg/mL. The “changes in MIC90 values” (Staphylococcus isolates; […]) was “Transient changes”, the “resistant isolates cultured from the left lower arm swabs” value (Staphylococcus isolates; skin swab, OL Week 2) was 3 isolates and the “resistant isolates cultured from the palms of the hands” value (Staphylococcus isolates; skin swab, OL Week 2) was 4 isolates. The “resistant isolates on the peri-rectum” value (Staphylococcus isolates; skin swab, OL Week 2) was 32 isolates, the “isolates with a MIC value ≥4 μg/mL (resistant)” value (Staphylococcus isolates; [3]) was 39 isolates and the “isolates with an MIC value of <4 μg/mL (susceptible)” value (Staphylococcus isolates; [3]) was 297 isolates. For the same compound, the “resistant isolates (count)” value (Staphylococcus isolates; [4]) was “Seven”, the “resistant isolates, % of isolates” value (Staphylococcus isolates; [4]) was 9.5% and the “resistant isolates (count)” value (Staphylococcus isolates; [5]) was 7 isolates. The “resistant isolates, % of isolates” value (Staphylococcus isolates; [5]) was 2.8%, the resistant isolates (Staphylococcus isolates; skin swab, OL follow-up Week 15 to Week 32) was “No rifampin resistant isolates” and the “change in MIC values” [1] was “Transient increases”.

With `O=C(O)c1cn(C2CC2)c2cc(N3CCNCC3)c(F)cc2c1=O` [ciprofloxacin] the “resistance of Staphylococcus isolates” value (Staphylococcus isolates; some skin swab isolates, did not substantially change with rifaximin treatment or time) was “low levels of resistance”.
